# Test results as given in patent publication US20260284165A1, “COMPOSITIONS AND METHODS FOR TREATMENT OR P[…] OF CANCER INCLUDING TRIPLE NEGATIVE BREAST CANCER AND/OR LUNG CANCER” (The Medical College of Wisconsin, Inc., priority 2023, published 2026).
# Test system: splenocytes
# Assay: IFNγ ELISPOT in splenocytes, cyclin E2 and KIF15 epitopes
# Assay type: cell-based, mice
# Settings: after four immunizations
# Text: We developed both cyclin E2 and KIF15 MHC-II vaccines using the multi-scoring system to identify immunogenic epitopes (Table 4). […] This multi-antigen preventive vaccine should also help overcome antigen-negative variant escape that has been observed with single antigen vaccines. Currently, a mRNA vaccine is also in development that contains the epitopes of TOP2A, cyclin E2 or KIF15 and will test its efficacy and immune response in relevant preclinical animal models.
row,Sequence,type I immunity (IFNγ ELISPOT)
1,SHNLRGVIPRSFEYL [p129],elicited type I immunity
2,AAALCHFTSIEVVKK [p298],elicited type I immunity
3,VVKSTSPVKLKTFKK [p334],elicited type I immunity
